Here are results for 30 molecules from patent US20240246992A1, “MACROCYCLIC LRRK2 KINASE INHIBITORS” (LES LABORATOIRES SERVIER, priority 2021, published 2024).

SMILES strings stand for the structures.

Chain of human recombinant LRRK2 protein (Q5S007 whole entry): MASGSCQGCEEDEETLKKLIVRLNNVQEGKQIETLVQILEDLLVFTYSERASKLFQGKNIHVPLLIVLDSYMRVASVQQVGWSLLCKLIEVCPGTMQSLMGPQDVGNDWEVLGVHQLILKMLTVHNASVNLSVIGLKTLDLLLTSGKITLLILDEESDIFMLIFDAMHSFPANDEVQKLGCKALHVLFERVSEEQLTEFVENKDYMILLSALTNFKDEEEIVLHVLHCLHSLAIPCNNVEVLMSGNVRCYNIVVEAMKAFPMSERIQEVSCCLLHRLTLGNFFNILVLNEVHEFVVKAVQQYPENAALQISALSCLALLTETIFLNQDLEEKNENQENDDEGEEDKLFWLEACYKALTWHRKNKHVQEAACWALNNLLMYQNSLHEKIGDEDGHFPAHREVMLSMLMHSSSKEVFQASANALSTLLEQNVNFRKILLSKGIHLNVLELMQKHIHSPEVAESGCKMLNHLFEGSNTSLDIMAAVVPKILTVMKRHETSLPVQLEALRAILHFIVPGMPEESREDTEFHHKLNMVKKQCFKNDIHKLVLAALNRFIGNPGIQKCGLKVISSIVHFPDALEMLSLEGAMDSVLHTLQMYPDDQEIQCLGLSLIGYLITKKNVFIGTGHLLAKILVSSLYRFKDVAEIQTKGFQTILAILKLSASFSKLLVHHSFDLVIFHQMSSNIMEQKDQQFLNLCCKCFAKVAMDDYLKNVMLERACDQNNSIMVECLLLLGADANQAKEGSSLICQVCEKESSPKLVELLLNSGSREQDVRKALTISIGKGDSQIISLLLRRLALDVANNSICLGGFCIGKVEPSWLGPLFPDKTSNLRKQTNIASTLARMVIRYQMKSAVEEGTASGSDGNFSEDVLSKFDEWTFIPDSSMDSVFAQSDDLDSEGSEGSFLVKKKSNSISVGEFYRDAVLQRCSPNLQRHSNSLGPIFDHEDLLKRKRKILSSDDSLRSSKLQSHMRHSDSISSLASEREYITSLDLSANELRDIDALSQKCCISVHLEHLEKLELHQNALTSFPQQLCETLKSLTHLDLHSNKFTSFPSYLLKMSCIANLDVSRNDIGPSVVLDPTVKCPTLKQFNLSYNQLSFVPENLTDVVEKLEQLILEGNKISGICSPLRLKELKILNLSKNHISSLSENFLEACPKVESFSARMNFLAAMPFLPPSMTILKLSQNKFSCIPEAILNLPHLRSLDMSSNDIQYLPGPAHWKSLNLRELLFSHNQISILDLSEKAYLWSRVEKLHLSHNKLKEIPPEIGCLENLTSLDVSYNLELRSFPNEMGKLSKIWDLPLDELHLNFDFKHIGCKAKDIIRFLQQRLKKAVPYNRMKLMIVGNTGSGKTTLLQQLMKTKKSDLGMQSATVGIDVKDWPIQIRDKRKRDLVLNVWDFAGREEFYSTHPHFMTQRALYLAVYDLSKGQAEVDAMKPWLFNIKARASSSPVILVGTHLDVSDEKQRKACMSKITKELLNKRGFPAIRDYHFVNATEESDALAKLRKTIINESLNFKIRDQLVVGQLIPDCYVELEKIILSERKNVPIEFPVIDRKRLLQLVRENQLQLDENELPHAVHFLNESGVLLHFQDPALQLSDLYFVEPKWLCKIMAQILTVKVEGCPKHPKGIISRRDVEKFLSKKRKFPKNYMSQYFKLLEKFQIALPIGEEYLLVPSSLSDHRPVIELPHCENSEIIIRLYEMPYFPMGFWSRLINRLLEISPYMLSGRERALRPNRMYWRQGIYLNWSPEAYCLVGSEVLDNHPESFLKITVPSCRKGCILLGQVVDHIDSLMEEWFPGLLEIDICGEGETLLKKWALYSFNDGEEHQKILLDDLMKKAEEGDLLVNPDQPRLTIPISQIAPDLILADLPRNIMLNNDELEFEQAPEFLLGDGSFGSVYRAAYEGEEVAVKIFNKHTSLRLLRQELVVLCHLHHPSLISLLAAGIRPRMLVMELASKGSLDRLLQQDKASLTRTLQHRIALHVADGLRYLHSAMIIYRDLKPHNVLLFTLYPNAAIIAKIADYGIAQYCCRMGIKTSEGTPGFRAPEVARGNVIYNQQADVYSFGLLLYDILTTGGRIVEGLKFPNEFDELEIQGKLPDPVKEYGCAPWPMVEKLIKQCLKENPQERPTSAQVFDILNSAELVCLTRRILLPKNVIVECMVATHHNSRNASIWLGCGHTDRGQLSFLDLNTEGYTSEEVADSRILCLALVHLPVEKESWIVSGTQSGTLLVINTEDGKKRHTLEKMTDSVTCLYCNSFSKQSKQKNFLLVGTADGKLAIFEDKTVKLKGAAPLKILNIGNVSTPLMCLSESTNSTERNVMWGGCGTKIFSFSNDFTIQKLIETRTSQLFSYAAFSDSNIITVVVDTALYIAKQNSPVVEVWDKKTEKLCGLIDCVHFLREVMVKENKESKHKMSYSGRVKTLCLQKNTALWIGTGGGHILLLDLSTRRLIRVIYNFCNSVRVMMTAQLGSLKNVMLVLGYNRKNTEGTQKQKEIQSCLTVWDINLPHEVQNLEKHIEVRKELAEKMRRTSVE

This assay has as its target human recombinant LRRK2 protein (Homo sapiens, UniProt Q5S007). Kind of assay: LRRK2 kinase activity assay (ADP-Glo, LRRKtide peptide). In kind it is biochemical. The following applies: human recombinant LRRK2 wt, LRRKtide peptide and ATP, 1 h at 37° C. Summed up: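 ADP-Glo luminescence read-out of a peptide assay: compound, ATP and LRRKtide substrate combined with recombinant human LRRK2 and incubated at 37 °C for 1 h. Ten-point data, N=2, curve-fitted to IC50.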
(ADP-Glo first removes unused ATP, then detects ADP through luciferase.)
One may read the IC50 as the midpoint of a concentration-inhibition curve. Consider `C[C@@H]1CCCOCCn2ncc(n2)-c2n[nH]c3ccc(cc23)O1` [Example 124, (12R)-12-methyl-8,13-dioxa-4,5,18,19,22-pentaazatetracyclo [12.5.2.1^2,5.0^17,20]docosa-1(19),2(22),3,14(21),15,17(20)-hexaene], for which the IC50 was less than 10 nM. For `C[C@H]1CCOCCCOc2ccc3[nH]nc(c3c2)-c2cnn1c2` [Example 15, (6S)-6-methyl-9,13-dioxa-4,5,18,19-tetraazatetracyclo[12.5.2.1^2,5.0^17,20] docosa-1(19),2(22),3,14(21),15,17(20)-hexaene], the IC50 was less than 10 nM. As for `C[C@@H]1COCCCCn2ncc(n2)-c2n[nH]c3ccc(cc23)O1` [Example 130, (12R)-12-methyl-10,13-dioxa-4,5,18,19,22-pentaazatetracyclo[12.5.2.1^2,5.0^17,20] docosa-1(19),2(22),3,14(21),15,17(20)-hexaene], the figure is less than 100 nM; as for `C[C@@H]1CCOCC(F)(F)COc2ccc3[nH]nc(c3c2)-c2cnn1c2` [Example 109, (6R)-11,11-difluoro-6-methyl-9,13-dioxa-4,5,18,19-tetraazatetracyclo [12.5.2.1^2,5.0^17,20]docosa-1(19),2(22),3,14(21),15,17(20)-hexaene], less than 100 nM. With `C[C@H]1COCCOCCn2ccc(n2)-c2n[nH]c3ccc(cc23)O1` [Example 80, (13S)-13-methyl-8,11,14-trioxa-5,19,20,23-tetraazatetracyclo [13.5.2.1^2,5.0^18,21]tricosa-1(20),2(23),3,15(22),16,18(21)-hexaene] the figure was less than 1000 nM. As for `O=C1COc2cc(cc(N3CCN(CC4CC4)CC3)c2)-c2n[nH]c3ccc(cc23)OCCCN1` [Example 209, 4-[4-(cyclopropylmethyl)piperazin-1-yl]-7,14-dioxa-10,19,20-triazatetracyclo[13.5.2.1^2,6.0^18,21]tricosa-1(20),2(23),3,5,15,17,21-heptaen-9-one], the figure is less than 10 nM. Take `c1cc2cc(c1)[C@H]1C[C@@H]1CNCCCOc1ccc3[nH]nc-2c3c1` [Example 165, (7S,9S)-15-oxa-11,20,21-triazapentacyclo[14.5.2.1^2,6.0^7,9.0^19,22]tetracosa-1(21),2(24),3,5,16(23),17,19(22)-heptaene]: the concentration for half-maximal inhibition (IC50) is less than 1000 nM. With `C[C@@H]1COCCOCC(F)n2cc(cn2)-c2n[nH]c3ccc(cc23)O1` (single isomer, unassigned) [Example 105, (6R*,13R)-6-fluoro-13-methyl-8,11,14-trioxa-4,5,19,20-tetraazatetracyclo[13.5.2.1^2,5.0^18,21]tricosa-1(20),2(23),3, 15(22),16,18(21)-hexaene] the figure was less than 10 nM. As to `c1ncc2cc1OCCCNCCOc1ccc3[nH]nc-2c3c1` [Example 238, 7,14-dioxa-4,11,19,20-tetraazatetracyclo[13.5.2.1^2,6.0^18,21]tricosa-1(20),2,4,6(23),15,17,21-heptaene], the half-inhibitory concentration (IC50) was less than 10 nM. As for `C[C@@H]1C[C@@H](C)Oc2ccc3[nH]nc(c3c2)-c2cnn(c2)CCCO1` [Example 126, (10R,12R)-10,12-dimethyl-9,13-dioxa-4,5,18,19-tetraazatetracyclo [12.5.2.1^2,5.0^17,20]docosa-1(19),2(22),3,14(21),15,17(20)-hexaene], the figure is less than 10 nM; as for `[2H]C1([2H])OCCO[C@@H](C)COc2ccc3[nH]nc(c3c2)-c2cnn(c2)C1([2H])[2H]` [Example 110, (12S)-12-methyl(6,6,7,7-2H4)-8,11,14-trioxa-4,5,19,20-tetraazatetracyclo [13.5.2.1^2,5.0^18,21]tricosa-1(20),2(23),3,15(22),16,18(21)-hexaene], less than 10 nM. With `C[C@@H]1COCCCOc2ccc3[nH]nc(c3c2)-c2ccnc(n2)O1` [Example 55, (8R)-8-methyl-7,10,14-trioxa-5,19,20,23-tetraazatetracyclo[13.5.2.1^2,6.0^18,21] tricosa-1(20),2(23),3,5,15(22),16,18(21)heptaene] the figure was less than 10 nM; with `C[C@@H]1CNCCO[C@H](C)c2cncc(c2)-c2n[nH]c3ccc(cc23)O1` (single isomer, unassigned) [Example 235, (7R or 7S,13R)-7,13-dimethyl-8,14-dioxa-4,11,19,20-tetraazatetracyclo[13.5.2.1^2,6.0^18,21]tricosa-1(20),2(23),3,5,15(22),16,18(21)-heptaene], less than 100 nM; with `C[C@H]1COCCOCCn2ncc(n2)-c2n[nH]c3ccc(cc23)O1` [Example 81, (13S)-13-methyl-8,11,14-trioxa-4,5,19,20,23-pentaazatetracyclo[13.5.2.1^2,5.0^18,21]tricosa-1(20),2(23),3,15(22),16,18(21)-hexaene], less than 100 nM. For `O=C1COc2cncc(n2)-c2n[nH]c3ccc(cc23)OCCCN1` [Example 193, 7,14-dioxa-4,10,19,20,23-pentaazatetracyclo[13.5.2.1^2,6.0^18,21]tricosa-1(20),2(23),3,5,15(22),16,18(21)-heptaen-9-one], the 50% inhibitory concentration (IC50) is less than 10 nM.

Regarding `C[C@@H]1COCC[C@H](C)Oc2cncc(c2)-c2n[nH]c3ccc(cc23)O1` [Example 11, (8S,13R)-8,13-dimethyl-7,11,14-trioxa-4,19,20-triazatetracyclo[13.5.2.1^2,6.0^18,21]tricosa-1(20),2(23),3,5,15(22),16,18(21)-heptaene], the IC50 is less than 100 nM. With `O=C1COc2cc(cc(N3CCOCC3)c2)-c2n[nH]c3ccc(cc23)OCCCN1` [Example 207, 4-(morpholin-4-yl)-7,14-dioxa-10,19,20-triazatetracyclo [13.5.2.1^2,6.0^18,21]tricosa-1(20),2(23),3,5,15,17,21-heptaen-9-one], the concentration for half-maximal inhibition (IC50) was less than 10 nM. As to `C[C@@H]1CCOCC[C@@H](C)n2ncc(n2)-c2n[nH]c3ccc(cc23)O1` [Example 94, (6R,12R)-6,12-dimethyl-9,13-dioxa-4,5,18,19,22-pentaazatetracyclo[12.5.2.1^2,5.0^17,20]docosa-1(19),2(22),3,14(21),15,17(20)-hexaene], the IC50 was less than 10 nM. For `O=C1COc2cc(cc(N3CCCCC3)c2)-c2n[nH]c3ccc(cc23)OCCCN1` [Example 204, 4-(piperidin-1-yl)-7,14-dioxa-10,19,20-triazatetracyclo [13.5.2.1^2,6.0^18,21]tricosa-1(20),2(23),3,5,15,17,21-heptaen-9-one], the half-maximal inhibitory concentration (IC50) was less than 10 nM. For the molecule `c1cc2[nH]nc3c2cc1OCCOCCCOc1cc-3cc(N2CCOCC2)c1` [Example 3, 4-(morpholin-4-yl)-7,11,14-trioxa-19,20-diazatetracyclo[13.5.2.1^2,6.0^18,21] tricosa-1(20),2(23),3,5,15(22),16,18(21)-heptaene], the half-inhibitory concentration (IC50) is less than 10 nM. `C[C@@H]1COCCCOc2nccc(n2)-c2n[nH]c3ccc(cc23)O1` [Example 7, (13R)-13-methyl-7,11,14-trioxa-5,19,20,23-tetraazatetracyclo[13.5.2.1^2,6.0^18,21]tricosa-1(20),2(23),3,5,15(22),16,18(21)-heptaene]: the concentration for half-maximal inhibition (IC50) is less than 10 nM. As for `C[C@H]1CCOCC[C@H](C)n2cc(cn2)-c2n[nH]c3ccc(cc23)O1` [Example 38, (6S,12S)-6,12-dimethyl-9,13-dioxa-4,5,18,19-tetraazatetracyclo [12.5.2.1^2,5.0^17,20]docosa-1(19),2(22),3,14(21),15,17(20)-hexaene], the figure is less than 10 nM. With `C[C@H]1CCNCCOc2cc(cc(N3CCOCC3)c2)-c2n[nH]c3ccc(cc23)O1` [Example 175, (13S)-13-methyl-4-(morpholin-4-yl)-7,14-dioxa-10,19,20-triazatetracyclo[13.5.2.1^2,6.0^18,21]tricosa-1(20),2(23),3,5,15,17,21-heptaene] the figure was less than 10 nM. Take `C[C@@H]1CCNCCCn2cc(cn2)-c2n[nH]c3ccc(cc23)O1` [Example 180, (12R)-12-methyl-13-oxa-4,5,9,18,19-pentaazatetracyclo [12.5.2.1^2,5.0^17,20]docosa-1(19),2(22),3,14(21),15,17(20)-hexaene]: the IC50 is less than 100 nM. For the molecule `COC1CNC(=O)COc2cccc(c2)-c2n[nH]c3ccc(cc23)OC1` (stereo not drawn) [Example 170, 12-methoxy-7,14-dioxa-10,19,20-triazatetracyclo[13.5.2.1^2,6.0^18,21]tricosa-1(20),2(23),3,5,15,17,21-heptaen-9-one], the half-inhibitory concentration (IC50) is less than 100 nM. Regarding `c1cc2[nH]nc3c2cc1OCCCNCCOc1cc-3cc(C2CCOCC2)c1` [Example 147, 4-(oxan-4-yl)-7,14-dioxa-10,19,20-triazatetracyclo[13.5.2.1^2,6.0^18,21]tricosa-1(20),2(23),3,5,15,17,21-heptaene], the concentration for half-maximal inhibition (IC50) is less than 10 nM. As to `C[C@H]1NCCOc2cccc(c2)-c2n[nH]c3ccc(cc23)OC[C@@H]1F` [Example 231, (11R,12R)-12-fluoro-11-methyl-7,14-dioxa-10,19,20-triazatetracyclo[13.5.2.1^2,6.0^18,21]tricosa-1(20),2,4,6(23),15(22),16,18(21)-heptaene], the half-inhibitory concentration (IC50) is less than 100 nM.

On to `C[C@H]1CCOCCOc2nccc(n2)-c2n[nH]c3ccc(cc23)O1` [Example 16, (13S)-13-methyl-7,10,14-trioxa-5,19,20,23-tetraazatetracyclo[13.5.2.1^2,6. 0^18,21]tricosa-1(20),2(23),3,5,15(22),16,18(21)-heptaene], for which the IC50 is less than 10 nM. With `C[C@H]1COc2cncc(n2)-c2n[nH]c3ccc(cc23)O[C@@H](C)CCO1` [Example 51, (9S,13S)-9,13-dimethyl-7,10,14-trioxa-4,19,20,23-tetraazatetracyclo[13.5.2.1^2,6.0^18,21]tricosa-1(20),2(23),3,5,15(22),16,18(21)-heptaene] the figure was less than 100 nM. In the case of `C[C@@H]1CCOCC[C@H](C)n2ncc(n2)-c2n[nH]c3ccc(cc23)O1` [Example 103, (6S,12R)-6,12-dimethyl-9,13-dioxa-4,5,18,19,22-pentaazatetracyclo[12.5.2.1^2,5.0^17,20]docosa-1(19),2(22),3,14(21),15,17(20)-hexaene], the IC50 is less than 10 nM.
